Results from patent US5428048A, “Aryl-N-hydroxyureas as inhibitors of 5-lipoxygenase and anto-arteriosclerotic agents” (American Home Products Corporation, priority 1993, dated 1995).

Legend:
5-Lipoxygenase = target: T1, 5-Lipoxygenase (Homo sapiens, UniProt P09917); assay: Inhibition of 5-Lipoxygenase in Human Whole Blood (ionophore A23187-stimulated LTB4); assay type: cell-based
T1 construct: endogenous in cells; host or cells: whole blood of male human donors (results per 10^6 neutrophils)
T1 sequence (P09917 1-674): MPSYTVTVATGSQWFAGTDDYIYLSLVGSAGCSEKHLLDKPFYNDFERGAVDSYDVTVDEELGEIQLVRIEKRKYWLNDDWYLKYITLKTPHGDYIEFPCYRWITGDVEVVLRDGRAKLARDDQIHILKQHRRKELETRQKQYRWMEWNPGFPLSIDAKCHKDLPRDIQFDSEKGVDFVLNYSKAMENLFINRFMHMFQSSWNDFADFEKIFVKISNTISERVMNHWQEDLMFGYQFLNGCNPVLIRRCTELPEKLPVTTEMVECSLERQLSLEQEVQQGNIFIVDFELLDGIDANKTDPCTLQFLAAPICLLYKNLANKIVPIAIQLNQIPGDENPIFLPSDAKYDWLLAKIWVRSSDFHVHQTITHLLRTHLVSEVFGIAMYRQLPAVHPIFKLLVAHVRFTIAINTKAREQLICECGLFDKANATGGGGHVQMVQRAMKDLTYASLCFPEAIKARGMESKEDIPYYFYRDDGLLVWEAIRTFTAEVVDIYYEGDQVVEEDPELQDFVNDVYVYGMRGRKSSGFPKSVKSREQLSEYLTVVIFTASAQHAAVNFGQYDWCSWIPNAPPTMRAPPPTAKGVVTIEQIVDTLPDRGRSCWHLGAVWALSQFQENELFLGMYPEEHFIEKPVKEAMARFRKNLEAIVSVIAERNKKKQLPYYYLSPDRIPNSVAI

LTB4 Synthesis = assay: Reverse Passive Arthus Reaction (pleurisy, LTB4 in pleural exudate); assay type: in vivo, male Lewis rats
Procedure: 3. Reverse Passive Arthus Reaction
A reverse passive Arthus reaction is induced in the pleural cavity of male Lewis rats (150°-200 g; fasted overnight prior to use) by the intravenous administration of bovine serum albumin (BSA; 4 mg/0.2 ml) followed 30 minutes later by the injection of rabbit anti-BSA (1 mg/0.2 ml; lyophilized IgG fraction; Organon Teknika, West Chester, Pa.) into the right pleural space under halothane anesthesia. Drugs or vehicle (0.5% Tween-80) control are administered orally in a volume of 1 ml/100 g body weight at 1 hour prior to the anti-BSA. Animals are sacrificed at either the time of peak eicosanoid production (i.e. 5 minutes after anti-BSA for immunoreactive TxB2, 10 minutes for immunoreactive LTB4, 20 minutes for immunoreactive LTC4) or at the time of peak neutrophil infiltration (4 hours after anti-BSA) by CO2 inhalation. The pleural cavity is then exposed, the fluid exudate removed by gentle vacuum aspiration and the volume of exudate is recorded. For the determination of cellular infiltration, the pleural cavity is rinsed with 3 ml of 0.1% EDTA in sterile saline, and the recovered wash is pooled with the exudate. Cell number is determined on a model ZBI Coulter counter. For determination of eicosanoid production, undiluted pleural exudate is microfuged and the supernatant is extracted with ethanol (8-10 times volume). Extracts are either stored at -20° C., or are evaporated to dryness under a stream of N2 and reconstituted in radioimmunoassay (RIA) buffer.
Eicosanoids are quantitated by RIA according to the procedure specified by the RIA kit manufacturer (Advanced Magnetics, Cambridge, MA). Briefly, 100 μl of ^3 H-labeled eicosanoid and 100 μl of specific antibody ,are sequentially added to 100 μl of extracted pleural exudate in BGG-phosphate buffer which contains 0.01M phosphate, 0.1% bovine gamma globulin and 0.1% sodium azide at pH 7.0. Antibody-bound eicosanoid is separated from unbound eicosanoid by the addition of 750 μl of dextran (0.4%)-coated charcoal (Norit A) containing 0.1% sodium azide. The mixture is centrifuged at 2000 RPM at 5° C. for 15 minutes to pellet the charcoal and adsorbed unbound eicosanoid. Antibody-bound labeled eicosanoid is quantitated by counting in a liquid scintillation counter, and is correlated to concentration by a standard curve.

SMILES | inhibition at 1 µM (5-Lipoxygenase) [%] | % Inhibition LTB4 Synthesis (LTB4 Synthesis; 25 mg/kg p.o.) [%] | inhibition at 10 µM (5-Lipoxygenase; 10 μM) [%] | % Inhibition LTB4 Synthesis (LTB4 Synthesis; 10 mg/kg p.o.) [%]
Cc1oc(-c2ccccc2)nc1CCOc1ccc(CN(O)C(N)=O)cc1 [Example 1] | 55 | 35 | – | –
Cc1oc(-c2ccccc2)nc1CCOc1ccc(C(C)N(O)C(N)=O)cc1 (stereo not shown) [Example 4] | – | – | 60 | –
Cc1oc(-c2ccc(C(F)(F)F)cc2)nc1CCOc1ccc(CN(O)C(N)=O)cc1 [Example 13, 1-Hydroxy-1-[4-[2-[5-methyl-2(4-trifluoromethyl-phenyl)-oxazol-4-yl]-ethoxy]benzyl]-urea] | 47 | – | – | 91
NC(=O)N(O)Cc1ccc(OCCc2noc(-c3ccccc3)n2)cc1 [Example 21, 1-hydroxy-1-[4-[2-(5-phenyl-[1,2,4]-oxadiazol-3-yl)-ethoxy]-benzyl]-urea] | 70 | 19 | – | –
